This is an account of results in article PMC10381309 (Journal of Fungi, 2023).

Structures are written as SMILES. Converted amounts (≈) assume the structure as drawn. Where only a bound is given, the exact number is not on record here.

Holding throughout (type): cell-based
In data set [1] the test system is Fonsecaea pedrosoi (CFP 00791). The data set can be described thus: NIH Clinical Collection screening for antifungal activity (growth inhibition, OD 530 nm). The note with it: Fonsecaea pedrosoi, read-out: % Growth Inhibition. The protocol: These substances are part of the NIH Roadmap Molecular Libraries Screening Centers Network screening library, a collection of chemically diverse substances in Phase I-III clinical trials. Each substance was initially diluted to 1 mM in DMSO and stored at −20 °C until use. […] The final DMSO concentration corresponded to 0.5% v/v. The inoculum was prepared according to the protocol for filamentous fungi proposed by the European Committee on Antimicrobial Susceptibility Testing—EUCAST, with minor modifications. […] After growth, conidia were suspended in 3 mL of sterile distilled water with 0.1% Tween 20, vortexed, and the concentration adjusted to the 0.5 McFarland scale. The suspension was then diluted 1:10 in order to obtain a final working inoculum at 2–5 × 10^5 CFU/mL. Next, 100 µL of the inoculum was added to each well and the plates incubated at 35 °C for 72–96 h. Negative and positive controls consisted of culture medium alone and drug-free culture medium with the fungal inoculum previously described, respectively. Plates were read using a microplate reader (Epoch, Biotek, Wenusky, VT, USA) with a 530 nm filter to obtain the optical density. All plates were also visually read to confirm the equipment data. A calculation was performed to obtain the percentage of inhibition of fungal growth, according to the formula: (1 − (OD1/OD2)) × 100, where OD1 = optical density of the fungus in the presence of the drug; and OD2 = optical density of the growth control drug-free well.

Data set [2] concerns Exophiala dermatitidis (ATCC 28869). In words: Minimum fungicidal concentration determination. The procedure: (§1) Minimum fungicidal concentration (MFC) was determined in triplicate by transferring a 5 μL aliquot from each well without fungal growth of the microdilution plates used for MIC determination, as described above, onto 2% glucose Sabouraud agar (Sigma Chemical Corporation). The MFC was determined as the lowest drug concentration without fungal growth on Sabouraud agar after five days of incubation at 35 °C. When the MFC/MIC ratio of a hit drug was 1 or 2, the substance was considered fungicidal against the pathogen. If this ratio was greater than 2, the hit drug was considered to be fungistatic.

Data set [3] deals with Exophiala heteromorpha (ATCC 28180). In words: Minimum fungicidal concentration determination. The procedure: as §1
The subject of data set [4] is Fonsecaea monophora (CFP 00911). In words: Minimum fungicidal concentration determination. The procedure:
as §1

Data set [5] has as its system Fonsecaea nubica (CFP 00912). The data set can be described thus: Minimum fungicidal concentration determination. The protocol:
as §1

Data set [6] concerns Fonsecaea pedrosoi (CFP 00791). In words: Minimum fungicidal concentration determination. The procedure: as §1
For data set [7], the system named is Phialophora verrucosa (CFP 00937). In words: Minimum fungicidal concentration determination. The protocol:
as §1

The test system of data set [8] is Rhinocladiela similis (CFP 00790). In words: Minimum fungicidal concentration determination. The protocol:
as §1

Data set [9] is described as follows: Effect of albendazole on cell viability, MTT assay. Conditions: after 96 h. The protocol: After this analysis, the effect on viability of albendazole on both HaCat (human skin keratinocyte) and Vero (monkey kidney epithelial cell) cells was evaluated by MTT assay. Firstly, the mammalian cells (5 × 10^4/well) were allowed to adhere in 96-well tissue culture plates for 4 h at 37 °C in a 5% CO2 atmosphere. Non-adherent cells were removed by washes with sterile DMEM and the wells refilled with DMEM medium supplemented with 10% FBS. The cells were then incubated with increasing concentrations of albendazole (15.62 to 750 µM) and incubated for additional 24 h and 96 h at 37 °C in a 5% CO2 atmosphere. Subsequently, the culture medium was discharged, and the formation of formazan was measured by adding MTT (5 mg/mL in PBS, 25 µg/well) and incubating the wells for 3 h in the dark at 37 °C. Wells with cells receiving only the culture medium with or without 1% DMSO were also included as positive cellular growth controls. The plates were subsequently centrifuged at 500× g for 8 min, the supernatant was removed, the pellet was dissolved in 200 µL of DMSO, and the absorbance measured in an ELISA reader at 570 nm (SpectraMax Gemini 190, Molecular Devices, CA, USA). The 50% cytotoxicity inhibitory concentration (CC50) was determined by non-linear regression analysis.

In data set [10] the test system is Cladophialophora carrionii (CFP 00910). In words: Urease production in Christensen urea broth (OD 559 nm). The note with it: C. carrionii; ½ MIC albendazole; 7 and 12 days, 37 °C. The procedure:
(§2) To verify urease production, three strains: Fonsecaea pedrosoi (CFP 00791) Cladophialophora carrionii (CFP 00910), and Exophiala heteromorpha (ATCC® 28180), corresponding to the three major chromoblastomycosis agents worldwide, were cultured on PDA for seven days and further cultured in Christensen urea broth in the presence and absence of albendazole at a ½ MIC concentration. Candida albicans and Cryptococcus neoformans were used as negative and positive controls of the culture medium, respectively. In brief, fungal suspensions were adjusted to a concentration of 10^6 cells/mL and used for inoculation. A volume of 500 μL of these suspensions were inoculated into 4.5 mL of Christensen urea broth and the tubes were then incubated under agitation (150 rpm) at 37 °C. At the end of seven and 12 days of incubation, the tubes were centrifuged, and a volume of 100 μL of the supernatant was transferred to a 96-well plate; this procedure was performed in triplicate. The absorbances of the samples were read on a SpectraMax plus 384 spectrophotometer (Molecular Devices, San José, CA, USA) at 559 nm, as previously described by Almeida-Paes et al.. Results were analyzed statistically using the two-way ANOVA test with multiple comparisons. p values lower than 0.05 were considered significant.

Data set [11] relates to Exophiala heteromorpha (ATCC 28180). The description is as above. The note with it: E. heteromorpha; ½ MIC albendazole; 7 and 12 days, 37 °C. The protocol: as §2
For data set [12], the system named is Fonsecaea pedrosoi (CFP 00791). The description is as above. Conditions: F. pedrosoi; ½ MIC albendazole; 7 and 12 days, 37 °C. The protocol:
as §2

On to `CCCSc1ccc2nc(NC(=O)OC)[nH]c2c1` [Albendazole], for which the inhibition at 10 µM in data set [1] amounted to 98%. The “MFC:MIC Ratio” value in data set [2] (E. dermatitidis) was above 32; in data set [3] (E. heteromorpha), 32; in data set [4] (F. monophora), 1; in data set [5] (F. nubica) it was 64; in data set [6] (F. pedrosoi), 1; in data set [7] (P. verrucosa), 64. Besides, in data set [8] (R. similis), the “MFC:MIC Ratio” value was above 64. For the same molecule, the MFC in [2] (Exophiala dermatitidis, ATCC28869) is above 80 µM; in data set [3] (Exophiala heteromorpha, ATCC28180), 80 µM (≈ 21.2 µg/mL); in [4] (Fonsecaea monophora), 0.625 µM (≈ 0.166 µg/mL); in [5] (Fonsecaea nubica) it was 40 µM (≈ 10.6 µg/mL); in data set [6] (Fonsecaea pedrosoi), 1.25 µM (≈ 0.332 µg/mL); in data set [7] (Phialophora verrucosa) it was 40 µM (≈ 10.6 µg/mL). For the same molecule, the MFC in data set [8] was above 80 µM. For the same molecule, the “fungicidal or fungistatic (MFC/MIC ratio)” value in [4] (F. monophora) is “fungicidal (When the MFC/MIC ratio of a hit drug was 1 or 2, the substance was considered fungicidal)”; in data set [6] (F. pedrosoi), “fungicidal (When the MFC/MIC ratio of a hit drug was 1 or 2, the substance was considered fungicidal)”. In addition, the CC50 at 96 h in data set [9] (human, HaCat keratinocyte cells) turned out to be 85.1 µM; in [9] (monkey, Vero kidney epithelial cells), 262 µM. Moreover, the urease secretion result in data set [10] is “decrease in urease secretion”; in data set [11] it was “decrease in urease secretion”; in data set [12], “increased secretion of urease”.
